US20160361444A1, “USE OF IVABRADINE AS DIAGNOSTIC AGENT IN THE METHOD OF CORONARY ANGIOGRAPHY BY MULTISLICE COMPUTED TOMOGRAPHY” (LES LABORATOIRES SERVIER, priority 2008, published 2016)

Assay: Clinical study: effect of i.v. administration of ivabradine hydrochloride on heart rate in healthy volunteers
Format: in vivo
Settings: i.v. bolus of ivabradine hydrochloride solution containing 16 mg ivabradine base, resting heart rate (lying position) at T0+30 min, vs placebo control group
Experimental: Clinical Study. Effect of i.v. Administration of Ivabradine Hydrochloride on Heart Rate in Healthy Volunteers.
Resting heart rate (in a lying position) is measured at T0. The subjects are then given an i.v. bolus of a solution of ivabradine hydrochloride containing 16 mg of ivabradine base (treated group, n=8) or of placebo (control group, n=2). The resting heart rate (in a lying position) is again measured at T0+30 min.

## COc1cc2c(cc1OC)CC(=O)N(CCCN(C)C[C@H]1Cc3cc(OC)c(OC)cc31)CC2 [ivabradine]
  heart rate lower than the heart rate in the control group: 16%
